According to PubChem BioAssay (NCI):
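Five concentrations, 48 hours, 96-well plates. TGI is the concentration that stops growth completely.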

Tests used:
Assay in all cases: inhibition of tumour cell growth, NCI panel, 48 h
[1] = tested on: CCRF-CEM leukemia
[2] = tested on: SNB-19 CNS
[3] = tested on: SK-MEL-2 melanoma
[4] = tested on: MCF7 breast
[5] = tested on: T-47D breast
[6] = tested on: SF-539 CNS
[7] = tested on: KM12 colon
[8] = tested on: U251 CNS
[9] = tested on: COLO 205 colon
[10] = tested on: A498 renal
[11] = tested on: SW-620 colon
[12] = tested on: SNB-75 CNS
[13] = tested on: DU-145 prostate
[14] = tested on: MALME-3M melanoma
[15] = tested on: OVCAR-5 ovarian
[16] = tested on: UACC-257 melanoma
[17] = tested on: EKVX NSCLC
[18] = tested on: OVCAR-8 ovarian
[19] = tested on: 786-0 renal
[20] = tested on: NCI-H522 lung
[21] = tested on: SN12C renal
[22] = tested on: OVCAR-4 ovarian
[23] = tested on: NCI-H226 lung
[24] = tested on: HT29 colon
[25] = tested on: PC-3 prostate
[26] = tested on: HCT-15 colon
[27] = tested on: NCI-H460 lung
[28] = tested on: MDA-MB-231 breast
[29] = tested on: SK-MEL-5 melanoma
[30] = tested on: HCC-2998 colon
[31] = tested on: SK-OV-3 ovarian
[32] = tested on: HS 578T breast
[33] = tested on: CAKI-1 renal
[34] = tested on: NCI/ADR-RES ovarian
[35] = tested on: SK-MEL-28 melanoma
[36] = tested on: ACHN renal
[37] = tested on: BT-549 breast
[38] = tested on: SF-295 CNS
[39] = tested on: M14 melanoma
[40] = tested on: UACC-62 melanoma
[41] = tested on: SR leukemia
[42] = tested on: HOP-92 NSCLC
[43] = tested on: A549 NSCLC
[44] = tested on: MDA-MB-435
[45] = tested on: HCT-116 colon
[46] = tested on: K-562 leukemia
[47] = tested on: HL-60(TB) leukemia
[48] = tested on: SF-268 CNS
[49] = tested on: NCI-H23 lung
[50] = tested on: IGROV1 ovarian
[51] = tested on: UO-31 renal
[52] = tested on: TK-10 renal
[53] = tested on: MDA-N
[54] = tested on: LOX IMVI melanoma
[55] = tested on: MOLT-4 leukemia
[56] = tested on: HOP-62 NSCLC
[57] = tested on: OVCAR-3 ovarian
[58] = tested on: RXF 393 renal
[59] = tested on: RPMI-8226 leukemia

## CCN1CC2(COC)C(O)CC(OC)C34C5CC6(O)C(OC)C=C(C5C6OC(=O)c5ccc(OC)c(OC)c5)C(C(OC)C23)C14 (stereo unspecified)
[1]
  TGI: > 7.5 µM
[2]
  TGI: > 7.5 µM
[3]
  TGI: > 7.5 µM
[4]
  TGI: > 7.5 µM
[5]
  TGI: > 7.5 µM
[6]
  TGI: > 7.5 µM
[7]
  TGI: > 7.5 µM
[8]
  TGI: > 7.5 µM
[9]
  TGI: > 7.5 µM
[10]
  TGI: > 7.5 µM
[11]
  TGI: > 7.5 µM
[12]
  TGI: > 7.5 µM
[13]
  TGI: > 7.5 µM
[14]
  TGI: > 7.5 µM
[15]
  TGI: > 7.5 µM
[16]
  TGI: > 7.5 µM
[17]
  TGI: > 7.5 µM
[18]
  TGI: > 7.5 µM
[19]
  TGI: > 7.5 µM
[20]
  TGI: > 7.5 µM
[21]
  TGI: > 7.5 µM
[22]
  TGI: > 7.5 µM
[23]
  TGI: > 7.5 µM
[24]
  TGI: > 7.5 µM
[25]
  TGI: > 7.5 µM
[26]
  TGI: > 7.5 µM
[27]
  TGI: > 7.5 µM
[28]
  TGI: > 7.5 µM
[29]
  TGI: > 7.5 µM
[30]
  TGI: > 7.5 µM
[31]
  TGI: > 7.5 µM
[32]
  TGI: > 7.5 µM
[33]
  TGI: > 7.5 µM
[34]
  TGI: > 7.5 µM
[35]
  TGI: > 7.5 µM
[36]
  TGI: > 7.5 µM
[37]
  TGI: > 7.5 µM
[38]
  TGI: > 7.5 µM
[39]
  TGI: > 7.5 µM
[40]
  TGI: > 7.5 µM
[41]
  TGI: > 7.5 µM
[42]
  TGI: > 7.5 µM
[43]
  TGI: > 7.5 µM
[44]
  TGI: > 7.5 µM
[45]
  TGI: > 7.5 µM
[46]
  TGI: > 7.5 µM
[47]
  TGI: > 7.5 µM
[48]
  TGI: > 7.5 µM
[49]
  TGI: > 7.5 µM
[50]
  TGI: > 7.5 µM
[51]
  TGI: > 7.5 µM
[52]
  TGI: > 7.5 µM
[53]
  TGI: > 7.5 µM
[54]
  TGI: > 7.5 µM

## C=C[C@H]1CN2CCc3c([nH]c4cc(O)ccc34)[C@@H]2C[C@@H]1C[C@H]1c2[nH]c3ccccc3c2CCN1C
[1]
  TGI: 3.98 µM
[2]
  TGI: 17.6 µM
[3]
  TGI: 7.65 µM
[4]
  TGI: 6.01 µM
[5]
  TGI: 36.1 µM
[6]
  TGI: 3.33 µM
[7]
  TGI: 9.13 µM
[8]
  TGI: 3.24 µM
[9]
  TGI: 3.31 µM
[10]
  TGI: 5.83 µM
[11]
  TGI: 3.87 µM
[12]
  TGI: 6.62 µM
[13]
  TGI: 33.9 µM
[14]
  TGI: 26.9 µM
[15]
  TGI: 31.4 µM
[16]
  TGI: 3.98 µM
[17]
  TGI: 20.1 µM
[18]
  TGI: 11.8 µM
[19]
  TGI: 3.36 µM
[20]
  TGI: 8.29 µM
[21]
  TGI: 13.3 µM
[22]
  TGI: 18.7 µM
[23]
  TGI: 36.3 µM
[24]
  TGI: 6.4 µM
[25]
  TGI: 9.69 µM
[26]
  TGI: 6.54 µM
[55]
  TGI: 12.4 µM
[27]
  TGI: 4.96 µM
[28]
  TGI: 16.9 µM
[29]
  TGI: 3.14 µM
[30]
  TGI: 3.44 µM
[31]
  TGI: 27.4 µM
[32]
  TGI: 11.1 µM
[33]
  TGI: 14.6 µM
[34]
  TGI: 24.6 µM
[56]
  TGI: 9.37 µM
[35]
  TGI: 3.27 µM
[36]
  TGI: 10.1 µM
[37]
  TGI: 27.2 µM
[38]
  TGI: 9.15 µM
[39]
  TGI: 3.14 µM
[40]
  TGI: 8.46 µM
[41]
  TGI: 6.41 µM
[42]
  TGI: 8.08 µM
[43]
  TGI: 15 µM
[44]
  TGI: 3.76 µM
[45]
  TGI: 5.94 µM
[46]
  TGI: 7.88 µM
[47]
  TGI: 7.69 µM
[48]
  TGI: 15.8 µM
[49]
  TGI: 31.8 µM
[50]
  TGI: 3.39 µM
[57]
  TGI: 9.55 µM
[51]
  TGI: 4.81 µM
[52]
  TGI: 22.1 µM
[53]
  TGI: 3.22 µM
[54]
  TGI: 9.67 µM

## Cn1c(=O)n2c(=O)n(C)c(=O)n2c1=O
[1]
  TGI: > 100 µM
[2]
  TGI: > 100 µM
[3]
  TGI: > 100 µM
[4]
  TGI: > 100 µM
[5]
  TGI: > 100 µM
[6]
  TGI: > 100 µM
[7]
  TGI: > 100 µM
[8]
  TGI: > 100 µM
[58]
  TGI: > 100 µM
[9]
  TGI: > 100 µM
[10]
  TGI: > 100 µM
[11]
  TGI: > 100 µM
[12]
  TGI: > 100 µM
[13]
  TGI: > 100 µM
[14]
  TGI: > 100 µM
[15]
  TGI: > 100 µM
[16]
  TGI: > 100 µM
[17]
  TGI: > 100 µM
[18]
  TGI: > 100 µM
[19]
  TGI: > 100 µM
[20]
  TGI: > 100 µM
[21]
  TGI: > 100 µM
[22]
  TGI: > 100 µM
[23]
  TGI: > 100 µM
[24]
  TGI: > 100 µM
[25]
  TGI: > 100 µM
[26]
  TGI: > 100 µM
[55]
  TGI: > 100 µM
[27]
  TGI: > 100 µM
[28]
  TGI: > 100 µM
[29]
  TGI: > 100 µM
[30]
  TGI: > 100 µM
[31]
  TGI: > 100 µM
[32]
  TGI: > 100 µM
[59]
  TGI: > 100 µM
[33]
  TGI: > 100 µM
[34]
  TGI: > 100 µM
[35]
  TGI: > 100 µM
[37]
  TGI: > 100 µM
[39]
  TGI: > 100 µM
[40]
  TGI: > 100 µM
[41]
  TGI: > 100 µM
[43]
  TGI: > 100 µM
[44]
  TGI: > 100 µM
[45]
  TGI: > 100 µM
[46]
  TGI: > 100 µM
[47]
  TGI: > 100 µM
[48]
  TGI: > 100 µM
[49]
  TGI: > 100 µM
[50]
  TGI: > 100 µM
[57]
  TGI: > 100 µM
[51]
  TGI: > 100 µM
[52]
  TGI: > 100 µM
[53]
  TGI: > 100 µM
[54]
  TGI: > 100 µM
